# Literature values in patent publication US10940128B2, “Injectable melphalan compositions comprising a cyclodextrin derivative and methods of making and using the same” (CYDEX PHARMACEUTICALS, INC., priority 2009, dated 2021).
# Read-outs that look alike come from different tables or passages of the source.
# Columns and labels:
# [1] = test system: certain animal tumors; details: in vivo; cited from earlier work
# [2] = cited from earlier work; for Mean (±SD) peak melphalan plasma concentrations: myeloma patients; for clearance of melphalan: repeat dosing of 0.5 mg/kg every 6 weeks
# [3] = test system: plasma proteins; details: cited from earlier work
# [4] = patients who have received intravenous melphalan; cited from earlier work
# [5] = water (pH 7); cited from earlier work
Compound,activity against certain animal tumors compared with melphalan [1],steady-state volume of distribution ([2]; after intravenous administration of 50 mg of melphalan) [L/kg],Mean (±SD) peak melphalan plasma concentrations ([2]; 10 mg/m^2 dose) [µg/mL],Mean (±SD) peak melphalan plasma concentrations ([2]; 20 mg/m^2 dose) [µg/mL],clearance of melphalan ([2]; after the first course) [mL/min/kg],clearance of melphalan ([2]; after the third course) [mL/min/kg],extent of melphalan binding to plasma proteins [3],drug (covalently) irreversibly bound to plasma proteins ([3]; plasma),share of the plasma protein binding accounted for by α1-acid glycoprotein ([3]; plasma),"hypersensitivity reactions, including anaphylaxis, share of patients [4]",solubility in water [5]
N[C@H](Cc1ccc(N(CCCl)CCCl)cc1)C(=O)O [medphalan],less active,,,,,,,,,,
"N[C@@H](Cc1ccc(N(CCCl)CCCl)cc1)C(=O)O [melphalan, 4-[bis(chloroethyl)amino]phenylalanine]",,0.5,1.2 ± 0.4,2.8 ± 1.9,8.1,5.5,60% to 90,Approximately 30%,about 20%,approximately 2%,practically insoluble
